Measurements: paper PMC7051184, “C9orf72 arginine-rich dipeptide repeat proteins disrupt karyopherin-mediated nuclear import” (eLife, 2020)
Where a SMILES comes first, the peptide text is derived from it.

Experiments:
Rps25 = assay: DPR aggregation assay and western blot, Rps25; type: biochemical, human; details: Fig 5-suppl 3C, normalized to untreated HEK on same membrane;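 also: RNA rows contain added 20 µg total HEK RNA while no-RNA rows lack it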
From the text: Supplement elife-51685-fig5-data1.xlsx, sheet "Figure 5-figure suppl 3" | column: Rps25

TDP-43 = assay: DPR aggregation assay and western blot, TDP-43; type: biochemical, human; details: for TDP43 band density, % untr control: Fig 5-suppl 3C, normalized to untreated HEK on same membrane; for TDP43 band density, % control: normalized to untreated HEK cells on the same membrane
Method: (§1) Supernatant and pellet fractions (for all 5 DPRs, and control/buffer only) were prepared as in the nuclear transport assays, by adding 100 µM 10mers to 2.5 mg/ml HEK lysate in 100 µL TRB. Supernatants were boiled in Laemmli (BioRad) for 5 min. Pellets were boiled for 15 min followed by sonication in order to fully disperse aggregates for SDS-PAGE. Equal volumes of supernatant and pellet fractions were run on 4–12% Bolt Bis-Tris Plus gels (ThermoFisher), transferred to nitrocellulose membrane using an iBlot2 dry blotting system (ThermoFisher). Protein loading was analyzed by BLOT-Faststain (G-biosciences, St. Louis, MO), according to the manufacterers’ instructions. For immunodetection, membranes were blocked with 5% non-fat milk in TBST and probed by sequential incubation with the primary antibodies as detailed in the table below. Detection was by HRP-conjugated secondary antibodies/chemiluminescence using an ImageQuant LAS 4000 system (GE, Chicago, IL). To permit sequential probing of membranes without stripping, signals were quenched by incubation with prewarmed 30% H20_2 for 20 min ([Sennepin et al., 2009]). Band intensities were measured by ImageQuant software. For pellet vs. supernatant fractions, all were expressed as percent untreated control. For blots in Figure 1E, samples were run on 4–20% SDS PAGE minigels (ThermoFisher) and blotted to PVDF membranes (Immun-Blot PVDF, Bio-Rad) using the Bio-Rad TransBlot Turbo apparatus, and probed as above. The chemiluminescence signal was captured with a Bio-Rad ChemiDoc XRS+ digital imaging system.

importin β [1] = assay: Bead halo assay, biotinylated importin β on neutravidin beads; type: binding, human; details: AF488-labeled; 1 mg/ml neuronal lysate added
Method: To prepare biotinylated WT importin β-Avitag (pKW1982, pK1099), BL21DE3 cells (New England Biolabs, Ipswich, MA) were co-transfected with the respective plasmids together with pAC-biotin ligase (Avidity), followed by plating and growth in LB media containing ampicillin and chloramphenicol. After the 37°C cultures reached OD600nm + 0.4–0.6, the cultures were cooled to room temperature, supplemented with 100 µM D-biotin, and the expression was induced with 0.3 mM IPTG at room temperature for 8–11 hr (pKW762). Proteins were purified on Ni-NTA resin as described for the non-biotinylated importin β fragments.
The bead halo assay was carried out as described with minor modifications ([Patel and Rexach, 2008]), using […] polystyrene beads coated with neutravidin (for biotinylated proteins) or glutathione (for GST-fusion proteins) (Spherotech, Lake Forest, IL). Beads were coated overnight at 4°C at saturating concentrations per manufacturers’ instructions and rinsed 2x in binding buffer (20 mM HEPES [pH 7.4], 150 mM KOAc, 2 mM Mg(OAc)2, 1 mM DTT, 0.1% Tween-20). Immediately prior to the assay, fluorescent bait proteins and beads were combined with 4x assay buffer (40 mM EDTA, 40 mg/ml BSA, 500 mM NaCl, and 0.2% Tween) to a total of 40 µL per well, in optical glass-bottom 96-well plates (Cellvis, Mountain View, CA). […]

importin α = assay: DPR aggregation assay and western blot, ImpA; type: biochemical, human; details: for ImpA band density, Pellet / ImpA band density, Supernatant: 100 µM 10mer in 2.5 mg/ml HEK lysate, normalized to untreated HEK; for ImpA band density, % untr control: Fig 5-suppl 3C, normalized to untreated HEK on same membrane;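 as to ImpA band density, % untr control: RNA rows contain added 20 µg total HEK RNA while no-RNA rows lack it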
Method: as §1

RanGAP1 = assay: DPR aggregation assay and western blot, RanGAP1; type: biochemical, human; details: for RanGAP1 band density, Pellet / RanGAP1 band density, Supernatant: 100 µM 10mer in 2.5 mg/ml HEK lysate, normalized to untreated HEK; for RanGAP1 band density, % untr control: Fig 5-suppl 3C, normalized to untreated HEK on same membrane
Method: as §1

importin β [2] = assay: DPR aggregation assay and western blot, ImpB; type: biochemical, human; details: for ImpB band density, Pellet / ImpB band density, Supernatant: 100 µM 10mer in 2.5 mg/ml HEK lysate, normalized to untreated HEK; for ImpB band density, % untr control: Fig 5-suppl 3C, normalized to untreated HEK on same membrane;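 as to ImpB band density, % untr control: RNA rows contain added 20 µg total HEK RNA while no-RNA rows lack it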
Method: as §1

FUS = assay: DPR aggregation assay and western blot, FUS; type: biochemical, human; details: normalized to untreated HEK cells on the same membrane
Method: as §1

RPS6 = assay: DPR aggregation assay and western blot, RPS6; type: biochemical, human; details: for Rps6 band density, % untr control: Fig 5-suppl 3C, normalized to untreated HEK on same membrane; for RPS6 band density, % control: normalized to untreated HEK cells on the same membrane;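 as to Rps6 band density, % untr control: RNA rows contain added 20 µg total HEK RNA while no-RNA rows lack it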
Method: as §1

Ran = assay: DPR aggregation assay and western blot, Ran; type: biochemical, human; details: for Ran band density, Pellet / Ran band density, Supernatant: 100 µM 10mer in 2.5 mg/ml HEK lysate, normalized to untreated HEK; for Ran band density, % untr control: Fig 5-suppl 3C, normalized to untreated HEK on same membrane
Method: as §1

[3] = DPR aggregate formation in HEK lysate (pellet vs. supernatant, total protein); type: biochemical, human; details: 100 µM
Method: as §1, with “For blots in Figure 1E, samples were run on 4–20% SDS PAGE minigels (ThermoFisher) and blotted to PVDF membranes (Immun-Blot PVDF, Bio-Rad) using the Bio-Rad TransBlot Turbo apparatus, and probed as above. The chemiluminescence signal was captured with a Bio-Rad ChemiDoc XRS+ digital imaging system.” left out

[4] = Pellet, no RNA (Untreated), blot 1
[5] = Pellet, no RNA (Untreated), blot 2
[6] = Supernatant, no RNA (Untreated), blot 1
[7] = Supernatant, no RNA (Untreated), blot 2

## N=C(N)NCCC[C@H](NC(=O)[C@@H]1CCCN1C(=O)[C@H](CCCNC(=N)N)NC(=O)[C@@H]1CCCN1C(=O)[C@H](CCCNC(=N)N)NC(=O)[C@@H]1CCCN1C(=O)[C@H](CCCNC(=N)N)NC(=O)[C@@H]1CCCN1C(=O)[C@H](CCCNC(=N)N)NC(=O)[C@@H]1CCCN1C(=O)[C@H](CCCNC(=N)N)NC(=O)[C@@H]1CCCN1C(=O)[C@H](CCCNC(=N)N)NC(=O)[C@@H]1CCCN1C(=O)[C@H](CCCNC(=N)N)NC(=O)[C@@H]1CCCN1C(=O)[C@H](CCCNC(=N)N)NC(=O)[C@@H]1CCCN1C(=O)[C@H](CCCNC(=N)N)NC(=O)[C@@H]1CCCN1)C(=O)O [PR10] (H-PRPRPRPRPRPRPRPRPRPR-OH; N-terminus and C-terminus assumed)
Rps25; Pellet, RNA, blot 1
  Rps25 band density, % untr control: 302.37%
Rps25; Pellet, RNA, blot 2
  Rps25 band density, % untr control: 467.96%
Rps25; [4]
  Rps25 band density, % untr control: 306.71%
Rps25; [5]
  Rps25 band density, % untr control: 525.42%
Rps25; Supernatant, RNA, blot 1
  Rps25 band density, % untr control: 12.19%
Rps25; Supernatant, RNA, blot 2
  Rps25 band density, % untr control: 16.30%
Rps25; [6]
  Rps25 band density, % untr control: 0.89%
Rps25; [7]
  Rps25 band density, % untr control: 1.06%
TDP-43; Pellet, RNA, blot 1
  TDP43 band density, % untr control: 155.77%
TDP-43; Pellet, RNA, blot 2
  TDP43 band density, % untr control: 157.99%
TDP-43; [4]
  TDP43 band density, % untr control: 180.16%
TDP-43; [5]
  TDP43 band density, % untr control: 165.43%
TDP-43; Supernatant, RNA, blot 1
  TDP43 band density, % untr control: 71.23%
TDP-43; Supernatant, RNA, blot 2
  TDP43 band density, % untr control: 80.31%
TDP-43; [6]
  TDP43 band density, % untr control: 41.29%
TDP-43; [7]
  TDP43 band density, % untr control: 36.83%
TDP-43; Pellet, Blot 1
  TDP43 band density, % control: 424.3 % control
TDP-43; Pellet, Blot 2
  TDP43 band density, % control: 185.6 % control
TDP-43; Supernatant, Blot 1
  TDP43 band density, % control: 54.8 % control
TDP-43; Supernatant, Blot 2
  TDP43 band density, % control: 45.9 % control
Importin β [1]
  Binding to importin β-coated beads: the intensity of the importin β halo persisted
Importin α; Blot 1
  ImpA band density, Pellet: 170.0 % control
  ImpA band density, Supernatant: 78.1 % control
Importin α; Blot 2
  ImpA band density, Pellet: 198.7 % control
  ImpA band density, Supernatant: 90.0 % control
Importin α; Pellet, RNA, blot 1
  ImpA band density, % untr control: 171.92%
Importin α; Pellet, RNA, blot 2
  ImpA band density, % untr control: 154.07%
Importin α; [4]
  ImpA band density, % untr control: 177.99%
Importin α; [5]
  ImpA band density, % untr control: 181.79%
Importin α; Supernatant, RNA, blot 1
  ImpA band density, % untr control: 85.78%
Importin α; Supernatant, RNA, blot 2
  ImpA band density, % untr control: 111.13%
Importin α; [6]
  ImpA band density, % untr control: 79.74%
Importin α; [7]
  ImpA band density, % untr control: 105.29%
RanGAP1; Blot 1
  RanGAP1 band density, Pellet: 413.6 % control
  RanGAP1 band density, Supernatant: 76.6 % control
RanGAP1; Blot 2
  RanGAP1 band density, Pellet: 481.7 % control
  RanGAP1 band density, Supernatant: 84.2 % control
RanGAP1; Pellet, RNA, blot 1
  RanGAP1 band density, % untr control: 309.83%
RanGAP1; Pellet, RNA, blot 2
  RanGAP1 band density, % untr control: 267.45%
RanGAP1; [4]
  RanGAP1 band density, % untr control: 288.68%
RanGAP1; [5]
  RanGAP1 band density, % untr control: 278.19%
RanGAP1; Supernatant, RNA, blot 1
  RanGAP1 band density, % untr control: 115.69%
RanGAP1; Supernatant, RNA, blot 2
  RanGAP1 band density, % untr control: 95.48%
RanGAP1; [6]
  RanGAP1 band density, % untr control: 62.58%
RanGAP1; [7]
  RanGAP1 band density, % untr control: 76.25%
Importin β [2]; Blot 1
  ImpB band density, Pellet: 818.3 % control
  ImpB band density, Supernatant: 89.3 % control
Importin β [2]; Blot 2
  ImpB band density, Pellet: 483.8 % control
  ImpB band density, Supernatant: 77.0 % control
Importin β [2]; Pellet, RNA, blot 1
  ImpB band density, % untr control: 176.94%
Importin β [2]; Pellet, RNA, blot 2
  ImpB band density, % untr control: 208.79%
Importin β [2]; [4]
  ImpB band density, % untr control: 231.77%
Importin β [2]; [5]
  ImpB band density, % untr control: 273.94%
Importin β [2]; Supernatant, RNA, blot 1
  ImpB band density, % untr control: 95.64%
Importin β [2]; Supernatant, RNA, blot 2
  ImpB band density, % untr control: 121.54%
Importin β [2]; [6]
  ImpB band density, % untr control: 76.39%
Importin β [2]; [7]
  ImpB band density, % untr control: 117.49%
FUS; Pellet, Blot 1
  FUS band density, % control: 65.8 % control
FUS; Pellet, Blot 2
  FUS band density, % control: 35.2 % control
FUS; Supernatant, Blot 1
  FUS band density, % control: 99.5 % control
FUS; Supernatant, Blot 2
  FUS band density, % control: 123.2 % control
RPS6; Pellet, RNA, blot 1
  Rps6 band density, % untr control: 396.86%
RPS6; Pellet, RNA, blot 2
  Rps6 band density, % untr control: 295.15%
RPS6; [4]
  Rps6 band density, % untr control: 455.82%
RPS6; [5]
  Rps6 band density, % untr control: 297.04%
RPS6; Supernatant, RNA, blot 1
  Rps6 band density, % untr control: 8.34%
RPS6; Supernatant, RNA, blot 2
  Rps6 band density, % untr control: 9.83%
RPS6; [6]
  Rps6 band density, % untr control: 2.35%
RPS6; [7]
  Rps6 band density, % untr control: 1.09%
RPS6; Pellet, Blot 1
  RPS6 band density, % control: 219.0 % control
RPS6; Pellet, Blot 2
  RPS6 band density, % control: 275.0 % control
RPS6; Supernatant, Blot 1
  RPS6 band density, % control: 3.7 % control
RPS6; Supernatant, Blot 2
  RPS6 band density, % control: 6.4 % control
Ran; Blot 1
  Ran band density, Pellet: 101.8 % control
  Ran band density, Supernatant: 104.7 % control
Ran; Blot 2
  Ran band density, Pellet: 132.9 % control
  Ran band density, Supernatant: 105.7 % control
Ran; Pellet, RNA, blot 1
  Ran band density, % untr control: 201.97%
Ran; Pellet, RNA, blot 2
  Ran band density, % untr control: 271.01%
Ran; [4]
  Ran band density, % untr control: 172.26%
Ran; [5]
  Ran band density, % untr control: 224.02%
Ran; Supernatant, RNA, blot 1
  Ran band density, % untr control: 114.46%
Ran; Supernatant, RNA, blot 2
  Ran band density, % untr control: 110.30%
Ran; [6]
  Ran band density, % untr control: 105.51%
Ran; [7]
  Ran band density, % untr control: 113.60%
[3]
  Depletion of NCT proteins from the supernatant: not substantially depleted from the supernatant
